PubChem BioAssay (NCI)
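48-hour exposure; five concentrations; linearly interpolated endpoints. GI50 is the concentration that inhibits growth by half. TGI: concentration producing complete growth inhibition.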

Columns and labels:
Test in all cases: DTP human tumour cell line panel, 48 h
[1] = test system: 786-0 renal
[2] = test system: A498 renal
[3] = test system: A549 NSCLC
[4] = test system: ACHN renal
[5] = test system: BT-549 breast
[6] = test system: CAKI-1 renal
[7] = test system: CCRF-CEM leukemia
[8] = test system: COLO 205 colon
[9] = test system: DU-145 prostate
[10] = test system: EKVX NSCLC
[11] = test system: HCC-2998 colon
[12] = test system: HCT-116 colon
[13] = test system: HCT-15 colon
[14] = test system: HL-60(TB) leukemia
[15] = test system: HOP-62 NSCLC
[16] = test system: HOP-92 NSCLC
[17] = test system: HS 578T breast
[18] = test system: HT29 colon
[19] = test system: IGROV1 ovarian
[20] = test system: K-562 leukemia
[21] = test system: KM12 colon
[22] = test system: LOX IMVI melanoma
[23] = test system: M14 melanoma
[24] = test system: MALME-3M melanoma
[25] = test system: MCF7 breast
[26] = test system: MDA-MB-231 breast
[27] = test system: MDA-MB-435
[28] = test system: MOLT-4 leukemia
[29] = test system: NCI-H226 lung
[30] = test system: NCI-H23 lung
[31] = test system: NCI-H460 lung
[32] = test system: NCI-H522 lung
[33] = test system: NCI/ADR-RES ovarian
[34] = test system: OVCAR-3 ovarian
[35] = test system: OVCAR-4 ovarian
[36] = test system: OVCAR-5 ovarian
[37] = test system: OVCAR-8 ovarian
[38] = test system: PC-3 prostate
[39] = test system: RPMI-8226 leukemia
[40] = test system: RXF 393 renal
[41] = test system: SF-268 CNS
[42] = test system: SF-295 CNS
[43] = test system: SF-539 CNS
[44] = test system: SK-MEL-2 melanoma
[45] = test system: SK-MEL-28 melanoma
[46] = test system: SK-MEL-5 melanoma
[47] = test system: SK-OV-3 ovarian
[48] = test system: SN12C renal
[49] = test system: SNB-19 CNS
[50] = test system: SNB-75 CNS
[51] = test system: SR leukemia
[52] = test system: SW-620 colon
[53] = test system: T-47D breast
[54] = test system: TK-10 renal
[55] = test system: U251 CNS
[56] = test system: UACC-257 melanoma
[57] = test system: UACC-62 melanoma
[58] = test system: UO-31 renal

O=Cc1cn(Cc2ccccc2)c2ccccc12
GI50 [1]: 33.1 µM
TGI [1]: 97.8 µM
GI50 [2]: 0.163 µM
TGI [2]: 0.389 µM
GI50 [3]: 35 µM
TGI [3]: > 100 µM
GI50 [4]: 33.6 µM
TGI [4]: > 100 µM
GI50 [5]: 29.2 µM
TGI [5]: > 96.8 µM
GI50 [6]: < 0.0426 µM
TGI [6]: 0.547 µM
GI50 [7]: 41.8 µM
TGI [7]: > 100 µM
GI50 [8]: 0.438 µM
TGI [8]: > 32.4 µM
GI50 [9]: > 68.2 µM
TGI [9]: > 100 µM
GI50 [10]: 22.8 µM
TGI [10]: > 81 µM
GI50 [11]: 21.9 µM
TGI [11]: > 100 µM
GI50 [12]: 13.7 µM
TGI [12]: > 100 µM
GI50 [13]: 52.4 µM
TGI [13]: > 100 µM
GI50 [14]: 16.9 µM
TGI [14]: > 80.5 µM
GI50 [15]: 21.8 µM
TGI [15]: > 100 µM
GI50 [16]: 20.6 µM
TGI [16]: > 100 µM
GI50 [17]: 30.5 µM
TGI [17]: > 100 µM
GI50 [18]: 61.5 µM
TGI [18]: > 100 µM
GI50 [19]: 0.5 µM
TGI [19]: > 38.1 µM
GI50 [20]: 18.7 µM
TGI [20]: > 100 µM
GI50 [21]: 53.3 µM
TGI [21]: > 100 µM
GI50 [22]: 24.4 µM
TGI [22]: > 100 µM
GI50 [23]: 43.4 µM
TGI [23]: > 100 µM
GI50 [24]: > 56 µM
TGI [24]: > 100 µM
GI50 [25]: 30.7 µM
TGI [25]: > 100 µM
GI50 [26]: 38.7 µM
TGI [26]: > 100 µM
GI50 [27]: 46.2 µM
TGI [27]: > 100 µM
GI50 [28]: 21.1 µM
TGI [28]: > 100 µM
GI50 [29]: 0.916 µM
TGI [29]: 3.72 µM
GI50 [30]: 37.9 µM
TGI [30]: > 100 µM
GI50 [31]: 0.279 µM
TGI [31]: > 100 µM
GI50 [32]: > 100 µM
TGI [32]: > 100 µM
GI50 [33]: 35.7 µM
TGI [33]: > 100 µM
GI50 [34]: 21 µM
TGI [34]: > 67.5 µM
GI50 [35]: 5.83 µM
TGI [35]: > 100 µM
GI50 [36]: 0.238 µM
GI50 [37]: 43.5 µM
TGI [37]: > 100 µM
GI50 [38]: 35.7 µM
TGI [38]: > 100 µM
GI50 [39]: 6.39 µM
TGI [39]: 47.7 µM
GI50 [40]: > 47.7 µM
TGI [40]: 97.7 µM
GI50 [41]: 52.1 µM
TGI [41]: > 100 µM
GI50 [42]: 5.15 µM
TGI [42]: > 63.4 µM
GI50 [43]: 43.7 µM
TGI [43]: > 100 µM
GI50 [44]: 8.62 µM
TGI [44]: 60.6 µM
GI50 [45]: > 57.8 µM
TGI [45]: > 100 µM
GI50 [46]: 18.7 µM
TGI [46]: > 70 µM
GI50 [47]: 4.04 µM
TGI [47]: > 100 µM
GI50 [48]: 49.2 µM
TGI [48]: > 100 µM
GI50 [49]: 75.4 µM
TGI [49]: > 100 µM
GI50 [50]: 27.1 µM
TGI [50]: > 100 µM
GI50 [51]: > 35.4 µM
TGI [51]: > 82 µM
GI50 [52]: 45.6 µM
TGI [52]: > 100 µM
GI50 [53]: 3.12 µM
TGI [53]: > 100 µM
GI50 [54]: 0.946 µM
TGI [54]: 9 µM
GI50 [55]: 31.5 µM
TGI [55]: > 100 µM
GI50 [56]: 3.44 µM
TGI [56]: 19.5 µM
GI50 [57]: 2.31 µM
TGI [57]: 19.4 µM
GI50 [58]: 18.2 µM
TGI [58]: > 100 µM
